Counter-ions that a name gives are not always drawn.

The target of the first series is T1, human 5-HT2A receptor (Homo sapiens, UniProt P28223).
T1 construct: expressed in transfected cells
T1 sequence (P28223 whole entry): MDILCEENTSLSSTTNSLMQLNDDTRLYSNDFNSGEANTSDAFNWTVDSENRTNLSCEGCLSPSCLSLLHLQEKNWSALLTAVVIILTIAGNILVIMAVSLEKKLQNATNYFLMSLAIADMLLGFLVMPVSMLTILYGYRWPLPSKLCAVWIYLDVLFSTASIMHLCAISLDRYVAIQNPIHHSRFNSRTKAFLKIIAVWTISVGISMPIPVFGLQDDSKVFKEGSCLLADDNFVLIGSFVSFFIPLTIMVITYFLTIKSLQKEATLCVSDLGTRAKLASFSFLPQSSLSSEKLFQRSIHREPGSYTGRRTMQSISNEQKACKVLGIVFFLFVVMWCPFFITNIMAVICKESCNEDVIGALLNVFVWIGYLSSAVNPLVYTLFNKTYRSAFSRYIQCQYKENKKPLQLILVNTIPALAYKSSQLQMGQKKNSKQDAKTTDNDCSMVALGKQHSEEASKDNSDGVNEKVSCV
Description: 5-HT2A receptor affinity assay: competition with 3H-labeled LSD on membranes of transfected CHO cells. The following applies: displacement of 3H-LSD; membranes from transfected CHO cell line stably expressing the human 5-HT2A receptor; non-specific binding defined with mianserin (5 μM). How it is done: The 5-HT2A receptor affinity of compounds in the Examples was determined in competition experiments, where the ability of each compound in serial dilution to displace ^3H-labeled lysergic diethyl amide (LSD), bound to membranes prepared from a transfected CHO cell line stably expressing the human 5-HT2A receptor protein, was measured after rapid filtration through glass fiber filters. Non-specific binding was defined using mianserin (5 μM). The 5-HT2A receptor affinity values are expressed as Ki values.
Background: Displacement assays read how much labelled ligand stays bound in the presence of the test substance.
A word on the Ki: it is a measure of affinity in units of concentration, obtained from inhibition or displacement. A higher Ki goes with lower affinity. `O=c1ccc2ccc(OCCn3ccnc(N4CCNCC4)c3=O)cc2o1` [Example 2, 1-{2-[(2-Oxo-2H-chromen-7-yl)oxy]ethyl}-3-(1-piperazinyl)-2(1H)-pyrazinone] showed a Ki of 152 nM.

In the case of `O=c1c(N2CCNCC2)nccn1CCOc1cc(F)c(F)cc1F` [Example 3, 3-(1-Piperazinyl)-1-[2-(2,4,5-trifluorophenoxy)ethyl]-2(1H)-pyrazinone], the Ki amounted to 2.2 nM.

As to `CCCCOc1cccc(OCCn2ccnc(N3CCNCC3)c2=O)c1` [Example 11, 1-[2-(3-n-Butyloxyphenoxy)ethyl]-3-(1-piperazinyl)-2(1H)-pyrazinone], affinity was put at a Ki of 2.5 nM.

For the molecule `O=c1c(N2CCNCC2)nccn1CCOc1ccc(F)c(F)c1F` [Example 13, 3-(1-Piperazinyl)-1-[2-(2,3,4-trifluorophenoxy)ethyl]-2(1H)-pyrazinone], affinity was put at a Ki of 29 nM.

Turning to `O=c1c(N2CCNCC2)nccn1CCOc1cccc([N+](=O)[O-])c1` [Example 23, 1-[2-(3-Nitrophenoxy)ethyl]-3-(1-piperazinyl)-2(1H)-pyrazinone], the affinity corresponds to a Ki of 13 nM.

On to `O=C(c1ccccc1)c1cccc(OCCn2ccnc(N3CCNCC3)c2=O)c1` [Example 24, 1-[2-(3-Benzoylphenoxy)ethyl]-3-(1-piperazinyl)-2(1H)-pyrazinone], for which affinity was put at a Ki of 3.6 nM.

`O=c1c(N2CCNCC2)nccn1CCOc1ccc(C(F)(F)F)cc1` [Example 29, 1-[2-(4-Trifluoromethylphenoxy)ethyl]-3-(1-piperazinyl)-2(1H)-pyrazinone] returned a Ki of 8 nM.

`O=c1c(N2CCNCC2)nccn1CCOc1ccc(Oc2ccccc2)cc1` [Example 31, 1-[2-{4-Phenoxy-(phenoxy)}ethyl]-3-(1-piperazinyl)-2(1H)-pyrazinone] showed a Ki of 4.4 nM.

Regarding `O=c1c(N2CCN(CCc3ccccc3)CC2)nccn1CCOc1cc(F)c(F)cc1F` [Example 62, 3-[4-(2-Phenylethyl)piperazin-1-yl-]1-[2-(2,4,5-trifluorophenoxy)ethyl]pyrazin-2(1H)-one], affinity was put at a Ki of 0.15 nM.

Take `O=c1c(N2CCN(Cc3ccccc3)CC2)nccn1CCOc1cc(F)c(F)cc1F` [Example 63, 3-(4-Benzylpiperazin-1-yl)-1-[2-(2,4,5-trifluorophenoxy)ethyl]pyrazin-2(1H)-one]: the Ki was 1.4 nM.

System in another series: not given
Assay: not given
Conditions: not given
The melting point is the temperature, or range, at which the solid turns liquid. In the case of `CN(C)c1cccc(OCCn2ccnc(N3CCNCC3)c2=O)c1` (as salt: fumarate) [Example 20, 1-{2-[3-(N,N-Dimethylamino)phenoxy]ethyl}-3-(1-piperazinyl)-pyrazin-2(1H)-one], the melting point is 180 to 191 °C.

On to `O=c1c(N2CCNCC2)nccn1CCOc1ccc([N+](=O)[O-])cc1F` (as salt: hydrochloride) [Example 1, 1-[2-(2-Fluoro-4-nitrophenoxy)ethyl]-3-(1-piperazinyl)-2(1H)-pyrazinone], for which the melting point was 105 to 108 °C.

On to `O=c1c(N2CCNCC2)nccn1CCOc1cc(F)c(F)cc1F` (as salt: hydrochloride) [Example 3, 3-(1-Piperazinyl)-1-[2-(2,4,5-trifluorophenoxy)ethyl]-2(1H)-pyrazinone], for which the melting point was 193 to 195 °C.

Consider `O=c1c(N2CCNCC2)nccn1CCOc1c(F)c(F)cc(F)c1F` (as salt: hydrochloride) [Example 4, 3-(1-Piperazinyl)-1-[2-(2,3,5,6-tetrafluorophenoxy)ethyl]-2(1H)-pyrazinone], for which the melting point is 196 to 198 °C (dec.).

`O=c1c(N2CCNCC2)nccn1CCOc1noc2ccccc12` (as salt: hydrochloride) [Example 9, 1-[2-(1,2-Benzisoxazol-3-yloxy)ethyl]-3-(1-piperazinyl)-2(1H)-pyrazinone] came in with a melting point of 174 to 176 °C.

As for `O=c1c(N2CCN(Cc3ccccc3)CC2)nccn1CCOc1cc(F)c(F)cc1F` (as salt: hydrochloride) [Example 63, 3-(4-Benzylpiperazin-1-yl)-1-[2-(2,4,5-trifluorophenoxy)ethyl]pyrazin-2(1H)-one], the melting point was in the range of 214 to 214.5 °C.

Molecule `C=CCc1ccc(OCCn2ccnc(N3CCNCC3)c2=O)c(OC)c1` (as salt: maleate) [Example 65, 1-[2-(4-Allyl-2-methoxyphenoxy)ethyl]-3-piperazin-1-ylpyrazin-2(1H)-one] gave a melting point of 158 to 160 °C.

For the molecule `O=c1c(N2CCNCC2)nccn1CCCCOc1cc(F)c(F)cc1F` (as salt: trifluoroacetate) [Example 58, 1-[4-(2,4,5-Trifluorophenoxy)butyl]-3-(1-piperazinyl)-2(1H)-pyrazinone], the melting point was 113.4 to 116.6 °C (dec.).

With `O=c1c(N2CCNCC2)nccn1CCCOc1cc(F)c(F)cc1F` (as salt: trifluoroacetate) [Example 59, 1-[3-(2,4,5-Trifluorophenoxy)propyl]-3-(1-piperazinyl)-2(1H)-pyrazinone], the melting point is 100.3 to 100.9 °C (dec.).

In the case of `CC(c1ccccc1)N1CCN(c2nccn(CCOc3cc(F)c(F)cc3F)c2=O)CC1` (racemic) (as salt: hydrochloride) [Example 60, 3-[4-(1-Phenylethyl)piperazin-1-yl]-1-[2-(2,4,5-trifluorophenoxy)ethyl]pyrazin-2(1H)-one], the melting point lay in the range of 137 to 139 °C.

As for `N#Cc1cccc(OCCn2ccnc(N3CCNCC3)c2=O)c1` [Example 7, 1-[2-(3-Cyanophenoxy)ethyl]-3-(1-piperazinyl)-2(1H)-pyrazinone], the melting point lay within 49 to 52 °C.

Consider `O=c1c(N2CCNCC2)nccn1CCOc1cccc([N+](=O)[O-])c1` [Example 23, 1-[2-(3-Nitrophenoxy)ethyl]-3-(1-piperazinyl)-2(1H)-pyrazinone], for which the melting point was found to be 171 °C.

`O=C(c1ccccc1)c1cccc(OCCn2ccnc(N3CCNCC3)c2=O)c1` [Example 24, 1-[2-(3-Benzoylphenoxy)ethyl]-3-(1-piperazinyl)-2(1H)-pyrazinone] registered a melting point of 69 to 70 °C.

The molecule `O=c1c(N2CCNCC2)nccn1CCOc1cc(F)cc(F)c1` [Example 25, 1-[2-(3,5-Difluorophenoxy)ethyl]-3-(1-piperazinyl)-2(1H)-pyrazinone] had a melting point of 119 to 121 °C.

For the origin of these results see US7244722B2, “Amino-substituted 1H-pyrazin-2-ones and 1H-quinoxalin-2-ones” (Biovitrum AB, priority 2002, dated 2007).
